{"source": "patent US10603385B2", "about": "“Methods and compositions for templated assembly of nucleic acid specific heterocompounds” (priority 2013, dated 2020)", "tested_on": "Caski cells", "assay": "Azide-cyclooctyne templated assembly on HPV16 E6/E7 in transfected living cells, sandwich detection of ligated product", "assay_type": "cell-based, human", "details": "Lipofectamine 2000 transfection, 24 hours after transfection", "procedure": "A set of corresponding reactants specific for the HPV16 E6/E7 gene were transfected into Caski cells to evaluate non-traceless nucleic acid templated assembly on tumor-associated targets in living cells. Sandwich enzymatic detection was used to confirm that templated assembly ligation product was preferentially formed in Caski cells rather than related cell lines lacking HPV16 E6/E7 sequence\nCaski and HeLa cell lines were cultured in DMEM medium with 10% heat inactivated fetal bovine serum. For each experimental condition, 1×10^6 cells were plated in a T-25 flask 24 hours before transfection. A flask from each cell line was transfected with both templated assembly reactants (experimental), and Caski flasks were also transfected with each one of the reactants in isolation as well (negative controls).\nLipofectamine 2000 (Invitrogen) was used as the transfection reagent in accordance with the manufacturer's instructions Immediately prior to transfection, cell flasks were washed with 1×PBS and Optimem serum-free medium was added as the growth medium. […] Separately, 11 uL of Lipofectamine 2000 was incubated with 275 uL of Optimem serum-free medium for 15 minutes. […] 500 uL of the Oligo-3.1-Lipofectamine transfection solution was then dispensed to the experimental flask. […]"}
{"substance": "5′-FAM-CCAGAUGUCUUUGCU-Azide-3′ [Oligo-3.1]", "values": [{"measurement": "Corrected Absorbance A450", "result": 0.003}]}
